Measured values: US20060154236A1, “Computer-assisted analysis” (priority 2004, published 2006)
Like-named read-outs stand apart in the source and are kept apart here. Residues, ends and D or L forms follow the SMILES beside them. *: point of attachment. Cbz = O=C(OCc1ccccc1)*

Key:
[1] = test system: HeLa (human cancer) cells; experiment: Hierarchical clustering of compound profiles by titration-invariant similarity score (TISS); format: cell-based
Source text: When comparing drug mechanism, changes in specificity, and thus phenotype, are relevant but changes in affinity, and thus PEC, are not. […] We developed a titration-invariant similarity score (TISS) to allow comparison between dose-response profiles independent of starting dose.
Titration-invariant similarity score (TISS) for comparing descriptor and compound vectors. We developed a “titration-invariant” similarity score (TISS) to assess the similarity of compounds independent of the starting point of their titration series. The TISS between two compounds is calculated in three steps: (1) we define the notion of a titration sub-series for each compound to account for different possible starting concentrations (FIGS. 35 and 36B); (2) we define a correlation for pairs of these sub-series (FIG. 36B); (3) we define a similarity measure derived from the strongest correlation over a determined range of these sub-series (FIG. 36B).
(1) For each compound c, the complete set of z-scores across all descriptors and titrations defines a DxT-dimensional vector: Xc=(zc,l,l, . . . , zc,D,l, . . . , zc,l,T, . . . , zc,D,T), where D is the number of descriptors (=93) and T is the number of titrations (=13). In order to allow comparisons of compounds with different titration starting points, we define titration sub-series as follows: Xc(s)=(zc,l,l, . . . , zc,D,l, . . . , zc,l,T−s, . . . , zc,D,T−s) and Xc(−s)=(zc,l,s, . . . , zc,D,s, . . . , zc,l,T, . . . , zc,D,T). Intuitively, by truncating starting or ending titrations, these definitions allow us to “shift” the starting point for the titration series.
(2) For all compound vectors Xi and Xj, we define their s-correlation: xij(s)=<Xi, Xj>(s)=<Xi(s), Xj(−s)>/(∥Xi(s)∥ ∥Xj(−s)∥)
(we use the standard notation <A, B>=ΣiAiBi and ∥A∥^2=<A,A>). Thus, <Xi, Xj>(0) measures the standard correlation of vectors Xi and Xj, while <Xi, Xj>(1) drops the first titration for compound Xj and the last for Xi before measuring their correlation. For each s, we built a 200×200 such correlation matrix X(s)=(xij(s)) using all of the compounds from each of the two replicates.
(3) Given a range −S≦s≦S, we wish to look for the value of s that gives the highest correlation between two vectors.
Clustering compound and descriptor vectors. We performed standard hierarchical clustering of replicate-averaged compound (FIG. 33) or descriptor (FIG. 39) vectors using the pdist and linkage functions in Matlab. pdist was defined by the TISS for each pair of vectors. […] Compound 50 was not present in all datasets and so was also excluded.

[2] = test system: HeLa (human cancer) cells; experiment: Cytological dose-response profiling by automated fluorescence microscopy (KS statistic z-scores, 93 descriptors); format: cell-based; settings: for response of compound profile (heat plot): 13-point titration
Method: The known drug set was chosen to cover common mechanisms of toxicity or therapeutic action in cancer and other diseases, and to include several groups with a common target (macromolecule or pathway) but unrelated structures. We analyzed thirteen 3-fold dilutions of each drug, covering a final concentration range on cells from micromolar to picomolar. (Table 3 and Materials & Methods). HeLa (human cancer) cells were cultured in 384-well plates to near confluence, treated with drugs for 20 hrs, fixed, and stained with fluorescent probes for various cell components and processes. We chose 11 distinct probes that covered a range of cell biology, multiplexing a DNA stain and two antibodies per well (the probe sets are: (SC35, anillin), (α-tubulin, actin), (phospho-p38, phospho-ERK), (p53, cFos), (phospho-CREB, calmodulin)). Using automated fluorescence microscopy, we collected images of up to ˜8000 cells from each well. 26 wells on each plate were treated only with DMSO to generate a control population. The experiment was performed twice in parallel to provide a replicate dataset. Image segmentation procedures were used to automatically identify nuclei and nuclear organelles, and cytoplasmic regions were approximated as an annulus surrounding each identified nucleus (FIG. 31A). For each cell, region, and probe, a set of descriptors was measured. These included measures of size, shape, and intensity, as well as ratios of intensities between regions (93 descriptors total, Table S3).
For profiling studies, it is useful to reduce each population of descriptor values to a single number. […] We devised a measure based on the Kolmogorov-Smirnov (KS) statistic, allowing nonparametric comparison of experimental and control distributions from the same plate (FIGS. 31B and 35). […] In particular, the relationship between z-score and the original physical measure may be non-linear.
Cell culture. 20 hours before compound addition, Hela cells grown in […] dishes were trypsinized, resuspended in DMEM supplemented with 10% FCS and 10 ug/mL penicillin/streptomycin, and plated in 384-well plates at an initial density of 3,000 cells per well, 40 uL per well. Compounds were purchased from Sigma (St. Louis, MO), Calbiochem (EMD Biosciences, San Diego, Calif.) and Tocris (Elliksville, MO) and are listed in Table 2. Compound stocks were prepared in DMSO and then arrayed on 384-well plates in 16 consecutive 1:3 serial dilutions in DMSO as outlined in Table 3. The highest and two lowest dilutions (rows A, 0 and P) were not used for subsequent analysis as the wells due to persistent edge effects, leaving us with a series of 13 dilutions. Each stock was diluted 16-fold in warmed culture medium, and 8 μl of this solution was added to the plated cells, resulting in a 96-fold final dilution. All conditions were performed in duplicate in separate plates. Cells were incubated at 37° C. for 20 hours, then fixed in 3% formaldehyde in PBS. All liquid handling was performed using a programmed TekBench (TekCel, Hopkinton, Mass.).
Markers. Five sets of markers were stained by standard immunofluorescence methods in this study.

[3] = test system: transcription; experiment: Preliminary in vitro transcription experiments; format: biochemical
[4] = test system: p53 and cFos; experiment: Single-cell analysis of nuclear p53 vs cFos intensity; format: cell-based, human; settings: HeLa, 20 hrs, FIG. 34
Source text: FIG. 34 is a single-cell analysis showing differing patterns of dose-dependent p53 and cFos responses to different drugs. A. Scatter plot of average nuclear p53 intensity vs. average cFos intensity in a typical control well and representative image. The bright cells at the top of the image are in mitosis. B. Dose-dependent increases in response to MG132 shown in heat maps are correlated in scatter plots and images (orange nuclei). C. Dose-dependent increases in response to camptothecin shown in heat maps are anti-correlated in scatter plots and images. The black (cFos) and green (p53) heat map values for the highest dose reflect the contribution of apoptotic cells with negligible p53 and cFos nuclear staining.
Extensions of cytological profiling to reflect dependencies among descriptors will allow more sophisticated analysis of drug responses at a systems level. For example, both p53 and cFos, a transcription factor involved in MAP-kinase signalling, are involved in cell stress responses, but the interrelationship of the p53 and MAP-kinase pathways is poorly understood (B. Kaina, Biochem Pharmacol 66:1547 (Oct. 15, 2003); incorporated herein by reference). […]

[5] = unsupervised hierarchical clustering of the 61 responsive compounds
[6] = HeLa cells, 20 hrs, thirteen 3-fold dilutions, Y = profile response above signal threshold

Compound | clustering of compound profile by TISS (FIG. 33) [1, 5] | Used in clustering (FIG. 33) [2, 6] | response of compound profile (heat plot) ([2]; HeLa, 20 hrs) | also measured
CC(C)[C@H](CO)Nc1nc(Nc2cccc(Cl)c2)c2ncn(C(C)C)c2n1 [Compound 46, Purvalanol A] | did cluster | Y |  | 
NC(=O)NO [Compound 94, Hydroxyurea] | clustered closely with their unblinded counterparts and compounds of similar reported mechanism | Y | significant responses | 
Austocystin [Compound 99] | clusters with transcription and translation inhibitors | Y | strong responses | inhibition of transcription in vitro [3]: inhibits transcription in vitro
CC[C@H]1CN2CCc3cc(OC)c(OC)cc3[C@@H]2C[C@@H]1C[C@H]1NCCc2cc(OC)c(OC)cc21 [Compound 96, Emetine] | clustered closely with their unblinded counterparts and compounds of similar reported mechanism | Y | significant responses | 
O=C(CCCCCN1C(=O)c2cccc3cccc(c23)C1=O)NO [Compound 97, Scriptaid] | clustered closely with their unblinded counterparts and compounds of similar reported mechanism | Y | significant responses | 
CC[C@H](C)[C@H]1NC(=O)[C@@H](NC(=O)[C@@H](CC(C)C)N(C)C(=O)[C@@H]2CCCN2C(=O)C(C)O)[C@@H](C)OC(=O)[C@H](Cc2ccc(OC)cc2)N(C)C(=O)[C@@H]2CCCN2C(=O)[C@H](CC(C)C)NC(=O)[C@@H](C)C(=O)[C@H](C(C)C)OC(=O)C[C@@H]1O (stereo partly shown) [Compound 98, Didemnin B] | clustered with ribosome inhibitors | Y |  | 
CC(C)C[C@@H](C=O)NC(=O)[C@H](CC(C)C)NC(=O)[C@H](CC(C)C)NC(=O)OCc1ccccc1 [Compound 38, MG132] (Cbz-Leu-Leu-Leu-aldehyde) |  | Y |  | relation of dose-dependent p53 and cFos responses in single cells [4]: increased correlated induction
CCCCCc1ccc(-c2ccc(/C=C/C(N)=O)cc2)nc1 [Compound 100, Concentramide] | difficult to interpret | Y | strong responses | 
CC[C@@]1(O)C(=O)OCc2c1cc1n(c2=O)Cc2cc3ccccc3nc2-1 [Compound 10, Camptothecin] |  | Y |  | anillin nuclear level ([2]; HeLa, 20 hrs, G2 arrested state): marked nuclear accumulation; total DNA content / cell cycle response ([2]; HeLa, 20 hrs, as drug concentration increases): arrest with S/G2 DNA content; apoptosis ([2]; HeLa, 20 hrs, at the highest concentrations): widely induced; p53 induction ([2]; HeLa, 20 hrs, concentrations sufficient to promote G2 arrest): much less so; p53 induction ([2]; HeLa, 20 hrs, high concentrations): strongly induced; p53 response (z-score heat plot) ([2]; HeLa, 20 hrs, low doses, FIG. 31C): statistically significant responses; relation of dose-dependent p53 and cFos responses in single cells [4]: anti-correlated
CC[C@H](CO)Nc1nc(NCc2ccccc2)c2ncn(C(C)C)c2n1 [Compound 49, Roscovitine] |  |  |  | clustering of compound profile by TISS (FIG. 33) [1]: did cluster; Used in clustering (FIG. 33) [2]: Y
Cn1cnc2c(NCc3ccccc3)nc(NCCO)nc21 [Compound 42, Olomucine] | did cluster | Y |  | 
